Measured values reported in PMC3969223, “Characterization of WZ4003 and HTH-01-015 as selective inhibitors of the LKB1-tumour-suppressor-activated NUAK kinases” (Biochemical Journal, 2013).
Where “and” joins values, the source holds several entries; their conditions need not be identical. Equal values may be shown once. Read-outs that look alike come from different tables or passages of the source.

Tests used:
Type in all cases: biochemical
NUAK2 = target: T1, NUAK2 (Homo sapiens, UniProt Q9H093); test: GST–NUAK2 Sakamototide peptide kinase assay; details: for IC50: 200 μM Sakamototide, 100 μM [γ-32P]ATP; for Inhibition of NUAK2 (in words): results not shown
T1 construct: made in house; host or cells: HEK-293 cells, transient transfection of pEBG2T construct
T1 sequence (Q9H093 1-628): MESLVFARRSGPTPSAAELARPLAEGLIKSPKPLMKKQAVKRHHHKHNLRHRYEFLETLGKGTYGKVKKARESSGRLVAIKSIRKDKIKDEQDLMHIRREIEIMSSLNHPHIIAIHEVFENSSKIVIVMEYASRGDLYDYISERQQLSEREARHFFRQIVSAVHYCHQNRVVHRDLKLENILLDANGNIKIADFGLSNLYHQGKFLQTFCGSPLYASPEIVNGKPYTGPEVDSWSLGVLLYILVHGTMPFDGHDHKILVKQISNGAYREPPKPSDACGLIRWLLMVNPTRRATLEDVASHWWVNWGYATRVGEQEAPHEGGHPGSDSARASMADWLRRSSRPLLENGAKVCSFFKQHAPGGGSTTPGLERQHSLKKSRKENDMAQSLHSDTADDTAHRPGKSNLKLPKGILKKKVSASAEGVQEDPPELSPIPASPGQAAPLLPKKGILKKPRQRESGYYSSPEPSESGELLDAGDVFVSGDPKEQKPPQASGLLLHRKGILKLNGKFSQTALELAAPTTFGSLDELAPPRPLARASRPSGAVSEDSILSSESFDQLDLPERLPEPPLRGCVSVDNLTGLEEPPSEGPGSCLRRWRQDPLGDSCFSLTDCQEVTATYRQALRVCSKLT
Method: (§1) Active GST–NUAK1, GST–NUAK1[A195T] and GST–NUAK2 enzymes were purified using glutathione–Sepharose from HEK-293 cell lysates 36–48 h following the transient transfection of pEBG2T mammalian constructs expressing N-terminal GST-tagged NUAK1, NUAK1[A195T] or NUAK2. For peptide kinase assays, 96-well plates were used, and each reaction was performed in triplicate. Each reaction was set up in a total volume of 50 μl containing 100 ng of NUAK1 (wild-type or A195T mutant) or NUAK2 in 50 mM Tris/HCl (pH 7.5), 0.1 mM EGTA, 10 mM magnesium acetate, 200 μM Sakamototide, 0.1 mM [γ-^32P]ATP (450–500 c.p.m./pmol) and the indicated concentrations of inhibitors dissolved in DMSO. After incubation for 30 min at 30°C, reactions were terminated by adding 25 mM (final) EDTA to chelate the magnesium. Then, 40 μl of the reaction mix was spotted on to P81 paper and immersed in 50 mM orthophosphoric acid. Samples were washed three times in 50 mM orthophosphoric acid followed by a single acetone rinse and air drying. The incorporation of [γ-^32P]ATP into Sakamototide was quantified by Cerenkov counting. The values were expressed as a percentage of the DMSO control. IC50 curves were developed and IC50 values were calculated using GraphPad Prism software.

NUAK1[A195T] = target: T2, NUAK1[A195T] (Homo sapiens, UniProt O60285, A195T); test: GST–NUAK1[A195T] Sakamototide peptide kinase assay; details: for IC50: 200 μM Sakamototide, 100 μM [γ-32P]ATP; for Reduction of potency (resistance) by the NUAK1 A195T mutation: NUAK1[A195T] versus wild-type NUAK1
T2 construct: made in house; host or cells: HEK-293 cells, transient transfection of pEBG2T construct
T2 sequence (O60285 1-661 A195T): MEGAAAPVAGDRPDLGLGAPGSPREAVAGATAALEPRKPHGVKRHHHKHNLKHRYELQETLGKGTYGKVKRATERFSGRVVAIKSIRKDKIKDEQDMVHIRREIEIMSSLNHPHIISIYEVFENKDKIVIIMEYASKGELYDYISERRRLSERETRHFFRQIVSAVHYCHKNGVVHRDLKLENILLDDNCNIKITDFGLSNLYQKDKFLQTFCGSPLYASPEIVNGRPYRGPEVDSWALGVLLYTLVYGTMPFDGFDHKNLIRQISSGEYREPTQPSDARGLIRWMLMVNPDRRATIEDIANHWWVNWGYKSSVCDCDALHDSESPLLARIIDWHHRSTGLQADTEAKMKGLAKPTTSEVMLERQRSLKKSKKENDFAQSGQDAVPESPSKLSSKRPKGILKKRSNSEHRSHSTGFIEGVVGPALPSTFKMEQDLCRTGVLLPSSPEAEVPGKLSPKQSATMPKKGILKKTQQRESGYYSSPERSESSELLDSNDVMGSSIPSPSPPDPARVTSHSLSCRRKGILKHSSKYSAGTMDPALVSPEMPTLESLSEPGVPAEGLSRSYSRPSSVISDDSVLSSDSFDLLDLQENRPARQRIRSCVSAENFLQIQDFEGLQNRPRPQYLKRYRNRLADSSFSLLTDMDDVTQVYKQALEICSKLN
Method: as §1

Aurora A = target: T3, Aurora A (Homo sapiens, UniProt O14965); test: Kinase profiling; details: for Inhibition of Aurora A in profiling (in words; Aurora isoforms): 1 μM
T3 sequence (O14965 1-403): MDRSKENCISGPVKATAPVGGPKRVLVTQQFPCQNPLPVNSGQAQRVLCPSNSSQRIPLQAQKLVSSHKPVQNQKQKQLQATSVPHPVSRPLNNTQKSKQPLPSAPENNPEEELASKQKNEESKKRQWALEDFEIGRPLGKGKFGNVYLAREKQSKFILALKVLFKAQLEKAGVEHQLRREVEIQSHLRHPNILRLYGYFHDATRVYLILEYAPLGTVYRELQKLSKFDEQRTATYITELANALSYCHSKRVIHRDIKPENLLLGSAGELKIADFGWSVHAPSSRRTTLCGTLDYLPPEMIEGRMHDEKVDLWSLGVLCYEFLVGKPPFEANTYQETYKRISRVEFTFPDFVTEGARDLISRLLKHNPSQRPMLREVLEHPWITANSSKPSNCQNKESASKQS
Method: (§2) Kinase inhibitor specificity profiling assays were carried out at The International Centre for Protein Kinase Profiling (http://www.kinase-screen.mrc.ac.uk/) against a panel of 140 protein kinases as described previously. Results are presented as a percentage of kinase activity in DMSO control reactions. Protein kinases were assayed in vitro with 0.1 or 1 μM of the inhibitors and the results are presented as an average of triplicate reactions±S.D. or in the form of comparative histograms.

JAK2 = JAK2 (Homo sapiens, UniProt O60674); test: Kinase profiling; details: for JAK2 activity, percentage of DMSO control: 0.1 or 1 μM inhibitor, mean of triplicate; for Inhibition of JAK2 in profiling (in words): 1 μM
Method: as §2

Aurora B = Aurora B (Homo sapiens, UniProt Q96GD4); test: Kinase profiling; details: for Aurora B activity, percentage of DMSO control: 0.1 or 1 μM inhibitor, mean of triplicate; for Inhibition of Aurora B in profiling (in words; Aurora isoforms): 1 μM
Method: as §2

ABL = ABL (Homo sapiens, UniProt P00519); test: Kinase profiling; details: for ABL activity, percentage of DMSO control: 0.1 or 1 μM inhibitor, mean of triplicate; for Inhibition of ABL in profiling (in words): 1 μM
Method: as §2

Chain of ABL (P00519 whole entry): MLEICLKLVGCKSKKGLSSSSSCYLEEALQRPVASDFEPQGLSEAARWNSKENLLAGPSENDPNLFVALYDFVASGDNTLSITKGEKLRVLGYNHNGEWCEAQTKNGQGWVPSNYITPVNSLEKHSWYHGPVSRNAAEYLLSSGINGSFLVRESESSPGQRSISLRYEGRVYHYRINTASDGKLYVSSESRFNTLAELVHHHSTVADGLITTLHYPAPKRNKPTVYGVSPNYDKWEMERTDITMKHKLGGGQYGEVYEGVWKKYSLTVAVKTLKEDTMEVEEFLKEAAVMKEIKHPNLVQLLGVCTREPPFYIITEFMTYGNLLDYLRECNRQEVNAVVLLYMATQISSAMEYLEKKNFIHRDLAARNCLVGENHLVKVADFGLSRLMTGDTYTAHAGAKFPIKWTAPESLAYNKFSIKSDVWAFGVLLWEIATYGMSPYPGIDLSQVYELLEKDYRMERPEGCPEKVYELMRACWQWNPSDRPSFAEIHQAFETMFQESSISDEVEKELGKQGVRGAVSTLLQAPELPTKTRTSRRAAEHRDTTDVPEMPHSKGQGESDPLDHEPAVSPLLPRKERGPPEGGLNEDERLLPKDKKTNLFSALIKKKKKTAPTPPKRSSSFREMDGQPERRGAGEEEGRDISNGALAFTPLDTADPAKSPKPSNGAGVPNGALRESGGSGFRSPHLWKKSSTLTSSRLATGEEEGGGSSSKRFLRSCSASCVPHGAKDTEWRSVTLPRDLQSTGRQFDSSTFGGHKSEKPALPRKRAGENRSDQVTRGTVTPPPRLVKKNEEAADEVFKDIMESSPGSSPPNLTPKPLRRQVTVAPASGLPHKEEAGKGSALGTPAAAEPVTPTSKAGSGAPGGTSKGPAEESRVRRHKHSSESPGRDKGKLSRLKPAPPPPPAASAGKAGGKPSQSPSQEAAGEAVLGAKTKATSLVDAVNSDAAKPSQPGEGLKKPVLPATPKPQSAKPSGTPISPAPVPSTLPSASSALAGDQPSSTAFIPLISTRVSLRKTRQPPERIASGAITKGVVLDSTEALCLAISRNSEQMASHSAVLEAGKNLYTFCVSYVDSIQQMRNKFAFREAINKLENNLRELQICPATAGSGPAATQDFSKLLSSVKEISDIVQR
Chain of JAK2 (O60674 whole entry): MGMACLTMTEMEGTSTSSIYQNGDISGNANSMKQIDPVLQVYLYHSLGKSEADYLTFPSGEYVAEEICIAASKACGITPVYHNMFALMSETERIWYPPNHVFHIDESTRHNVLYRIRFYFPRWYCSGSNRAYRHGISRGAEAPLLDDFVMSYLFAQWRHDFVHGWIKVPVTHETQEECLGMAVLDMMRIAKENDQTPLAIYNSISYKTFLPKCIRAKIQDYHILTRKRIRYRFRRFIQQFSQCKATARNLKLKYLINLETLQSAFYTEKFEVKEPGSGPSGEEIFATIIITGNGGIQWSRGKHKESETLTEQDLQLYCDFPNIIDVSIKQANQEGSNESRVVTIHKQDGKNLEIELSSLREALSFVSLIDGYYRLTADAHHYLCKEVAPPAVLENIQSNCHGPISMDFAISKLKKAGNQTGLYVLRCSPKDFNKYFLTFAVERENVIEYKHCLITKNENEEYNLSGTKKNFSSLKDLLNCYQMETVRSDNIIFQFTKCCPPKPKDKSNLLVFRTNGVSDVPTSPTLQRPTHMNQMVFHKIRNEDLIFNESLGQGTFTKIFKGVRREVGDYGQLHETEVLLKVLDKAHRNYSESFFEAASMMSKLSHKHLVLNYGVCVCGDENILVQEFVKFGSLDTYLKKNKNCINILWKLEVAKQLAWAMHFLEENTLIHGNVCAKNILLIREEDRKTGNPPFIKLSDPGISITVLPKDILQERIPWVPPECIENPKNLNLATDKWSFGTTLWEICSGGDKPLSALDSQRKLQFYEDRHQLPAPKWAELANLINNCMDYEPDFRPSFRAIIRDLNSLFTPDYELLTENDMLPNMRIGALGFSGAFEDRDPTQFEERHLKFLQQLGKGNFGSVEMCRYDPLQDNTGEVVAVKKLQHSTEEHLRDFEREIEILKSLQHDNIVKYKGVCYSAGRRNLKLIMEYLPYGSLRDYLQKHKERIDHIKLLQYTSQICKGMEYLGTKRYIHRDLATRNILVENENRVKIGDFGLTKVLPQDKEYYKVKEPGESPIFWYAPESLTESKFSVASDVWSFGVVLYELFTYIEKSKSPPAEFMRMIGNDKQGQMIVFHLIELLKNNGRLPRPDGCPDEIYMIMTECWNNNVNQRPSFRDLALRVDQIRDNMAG
Chain of Aurora B (Q96GD4 whole entry, canonical isoform): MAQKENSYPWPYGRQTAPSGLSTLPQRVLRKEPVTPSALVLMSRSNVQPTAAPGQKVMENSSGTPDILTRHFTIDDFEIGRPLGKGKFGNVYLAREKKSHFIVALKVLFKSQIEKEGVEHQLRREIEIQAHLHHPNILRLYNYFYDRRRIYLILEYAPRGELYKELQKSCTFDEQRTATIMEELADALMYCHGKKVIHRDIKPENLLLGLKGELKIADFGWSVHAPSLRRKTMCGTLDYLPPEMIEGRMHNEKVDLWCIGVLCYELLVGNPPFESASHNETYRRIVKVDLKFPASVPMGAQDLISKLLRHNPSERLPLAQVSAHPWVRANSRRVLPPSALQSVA

| SMILES | IC50 (NUAK2; bound given in text, read-out: IC50 for NUAK2) [nM] | Higher potency for NUAK1 than NUAK2 (NUAK2; NUAK1 versus NUAK2) [fold] | IC50 (NUAK1[A195T]) [nM] | Reduction of potency (resistance) by the NUAK1 A195T mutation (NUAK1[A195T]) | Aurora A activity, percentage of DMSO control (Aurora A; 0.1 or 1 μM inhibitor, mean of triplicate) [percentage] | JAK2 activity, percentage of DMSO control (JAK2) [percentage] | Aurora B activity, percentage of DMSO control (Aurora B) [percentage] | ABL activity, percentage of DMSO control (ABL) [percentage] | IC50 (NUAK2; read-out: IC50 for NUAK2 (wild-type GST–NUAK2)) [nM] | Inhibition of NUAK2 (in words) (NUAK2) | Inhibition of Aurora A in profiling (in words; Aurora isoforms) (Aurora A) | Inhibition of JAK2 in profiling (in words) (JAK2) | Inhibition of Aurora B in profiling (in words; Aurora isoforms) (Aurora B) | Inhibition of ABL in profiling (in words) (ABL) |
| --- | --- | --- | --- | --- | --- | --- | --- | --- | --- | --- | --- | --- | --- | --- |
| Cc1nc(Nc2cnn(C3CCNCC3)c2)nc2c1N(C)C(=O)c1cc3ccccc3cc1N2C [HTH-01-015] | > 10000 | > 100 | 5890 | ~ 50 fold and ~ 60 fold | 117 | 101 | 97 | 110 | – | – | – | – | – | – |
| CCC(=O)Nc1cccc(Oc2nc(Nc3ccc(N4CCN(C)CC4)cc3OC)ncc2Cl)c1 [WZ4003] | – | – | 900 | ~ 50 fold and 45 fold | – | 65 | 72 | 104 | 100 | – | – | – | – | – |
| CN1C(=O)c2ccccc2N(C)c2nc(Nc3cnn(C4CCNCC4)c3)ncc21 [XMD-17-51] | – | – | 600 | > 50 fold | – | – | – | – | – | Neither compound significantly inhibited | inhibited | inhibited | inhibited | inhibited |
| CN1C(=O)c2cc3ccccc3cc2N(C)c2nc(Nc3cnn(C4CCNCC4)c3)ncc21 [XMD-18-42] | – | – | 1500 | > 50 fold | – | – | – | – | – | Neither compound significantly inhibited | inhibited | inhibited | inhibited | inhibited |
